Values of other authors, collected in patent publication EP4755392A1, “ORAL PREPARATION FOR IMPROVING MINIMAL ERYTHEMA DOSE” (Mitsubishi Corporation Life Sciences Limited, priority 2023, dated 2025).

Conditions: after 6 months, ingesting 250 mg or more

blood glutathione amount increased: 17%
SMILES: N[C@@H](CCC(=O)N[C@@H](CS)C(=O)NCC(=O)O)C(=O)O [glutathione]
